Assay results published in patent US9063123B2, “Transgenic mice expressing human toll-like receptor 8” (Dynavax Technologies Corporation, priority 2011, dated 2015).

Tests used:
Type in all cases: cell-based
[1] = tested on: human peripheral blood mononuclear cells (PBMCs); assay: Cytokine production by human PBMCs stimulated with TLR7/TLR8 RNA PN (ELISA); conditions: 5×10^5 human PBMCs, 20, 100 or 200 μg/mL, 24 hours
Protocol: (§1) PN-based TLR8 ligand stabilized immunomodulatory RNA (5′-M2[…]-/glycerol/-[…]2-5′ (M2=C6-linker); SEQ ID NO:3) and PN-based TLR7 ligand stabilized immunomodulatory RNA (5′-[…]-/glycerol/-[…]-5′ (R=7-deazaguanosine); SEQ ID NO:2) were previously identified (Lan et al., PNAS 104:13750-13755, 2007). The effect of these TLR7— and TLR8-stimulating RNA PN was evaluated by measuring production of IL-6 and TNF-α in human peripheral blood mononuclear cells (PBMCs) and human monocytes (FIG. 2). 5×10^5 PBMCs or 2×10^5 monocytes from healthy human donors were stimulated with 20 μg/mL, 100 μg/mL, or 200 μg/mL of either TLR8 agonist or TLR7 agonist as indicated in FIG. 2. Twenty-four hours later supernatants were assessed for presence of inflammatory cytokines IL-6 and TNF-α by standard ELISA procedure.

human monocytes = assay: Cytokine production by human monocytes stimulated with TLR7/TLR8 RNA PN (ELISA); conditions: 2×10^5 human monocytes, 20, 100 or 200 μg/mL, 24 hours, compared with PBMCs
Protocol: as §1

human pDCs = assay: Cytokine production by human pDCs stimulated with TLR7/TLR8 RNA PN (ELISA); conditions: 1×10^5 human pDCs (negative for TLR8), 100 μg/mL, 24 hours
Protocol: The effect of TLR7 and TLR8-stimulating RNA PN were also evaluated in human pDCs by measuring production of IL-6, TNF-α, and IFN-α. […] 1×10^5 pDCs from healthy human donors were stimulated with 100 μg/mL of either TLR8 agonist or TLR7 agonist (Lan et al., PNAS 104:13750-13755, 2007) or medium alone as indicated in FIG. 3. Twenty-four hours later supernatants were assessed for presence of inflammatory cytokines IL-6, TNF-α and IFN-α by standard ELISA procedure.

Mouse splenocytes = assay: IL-12 and TNF-α production by mouse splenocytes (ELISA); conditions: 5×10^5 cells from 129 wt and TLR7KO mice, 100 μg/ml
Protocol: (§2) The effect of TLR7 and TLR8-stimulating RNA PNs was further evaluated in mouse cells by measuring IL-12 and TNF-α production (FIG. 4). Mouse splenocytes and PBMCs were prepared from 129 wt mice and TLR7KO mice, and 5×10^5 cells were stimulated with 100 μg/ml of either TLR8 or TLR7 agonist as indicated in FIG. 4. IL-12 and TNF-α were measured by ELISA using standard techniques.

[2] = molecular target: T1, human TLR8 expressed from the transgene in TLR8TGCL8 mice (Homo sapiens, UniProt Q9NR97); assay: Cytokine production by bone marrow cells from TLR8TGCL8 transgenic mice (ELISA); conditions: 5×10^5 bone marrow cells from TLR8TGCL8 mice vs C57BL/6 WT, 100 or 50 μg/mL, 24 hours
T1 construct: the human BAC carrying TLR8 gene was obtained from the RPCIB-753 BAC library; expressed in transfected cells; host or cells: Blood cells, bone marrow cells and PBMC of hTLR8 transgenic mice, and the whole animals; The mice came from C57BL/6NTac ES cells transfected with the BAC: the Clone 8 germline line and chimeras
T1 sequence (Q9NR97 27-1041): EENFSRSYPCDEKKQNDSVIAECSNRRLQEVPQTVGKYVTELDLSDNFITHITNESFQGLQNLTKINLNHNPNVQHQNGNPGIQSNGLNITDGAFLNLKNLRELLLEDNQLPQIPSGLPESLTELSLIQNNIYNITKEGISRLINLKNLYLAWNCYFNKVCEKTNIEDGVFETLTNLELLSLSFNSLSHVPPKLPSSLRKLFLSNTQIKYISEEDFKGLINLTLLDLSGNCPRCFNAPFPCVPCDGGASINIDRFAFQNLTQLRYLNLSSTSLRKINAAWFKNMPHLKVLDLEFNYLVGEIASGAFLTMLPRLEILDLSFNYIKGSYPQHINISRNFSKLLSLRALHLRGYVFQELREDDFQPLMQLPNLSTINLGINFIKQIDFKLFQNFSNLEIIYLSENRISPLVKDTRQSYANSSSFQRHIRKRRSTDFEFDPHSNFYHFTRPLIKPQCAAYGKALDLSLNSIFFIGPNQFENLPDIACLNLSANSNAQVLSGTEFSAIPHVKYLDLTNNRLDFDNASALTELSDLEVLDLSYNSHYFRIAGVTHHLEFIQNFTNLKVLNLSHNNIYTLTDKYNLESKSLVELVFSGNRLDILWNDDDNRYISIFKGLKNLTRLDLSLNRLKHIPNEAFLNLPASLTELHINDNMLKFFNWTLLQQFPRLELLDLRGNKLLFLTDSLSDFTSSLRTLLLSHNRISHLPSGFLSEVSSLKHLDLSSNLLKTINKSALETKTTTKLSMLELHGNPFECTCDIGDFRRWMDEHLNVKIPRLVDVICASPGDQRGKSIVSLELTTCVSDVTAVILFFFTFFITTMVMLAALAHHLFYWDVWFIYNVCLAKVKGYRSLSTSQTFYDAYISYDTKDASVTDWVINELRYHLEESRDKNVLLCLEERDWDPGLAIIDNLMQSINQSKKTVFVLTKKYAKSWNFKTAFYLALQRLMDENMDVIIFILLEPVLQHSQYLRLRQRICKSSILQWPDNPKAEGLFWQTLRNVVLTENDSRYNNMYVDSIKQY
From the text: (§3) PN-based TLR8 ligand stabilized immunomodulatory RNA (5′-M2[…]-/glycerol/-[…]2-5′ (M2=C6-linker); SEQ ID NO:3) and PN-based TLR7 ligand stabilized immunomodulatory RNA (5′-[…]-/glycerol/-[…]-5′ (R=7-deazaguanosine); SEQ ID NO:2) were previously identified (Lan et al., PNAS 104:13750-13755, 2007). To confirm that human TLR8 expressed from the transgene in TLR8TGCL8 mice is functional and sensitive to stimulation, the effect of TLR8-stimulating RNA PN (SEQ ID NO:3) on cytokine production was assessed. 5×10^5 blood cells from TLR8TGCL8 transgenic mice or C57BL/6 WT animals were stimulated with TLR8 agonist at different concentrations as shown in FIG. 13. 24 hours later supernatants were harvested and assayed for mouse IL-12, TNF-α and IL-6 using standard ELISA procedures. In addition, 5×10^5 bone marrow cells from TLR8TGCL8 transgenic mice or C57BL/6 WT animals were stimulated with TLR8 agonist (SEQ ID NO:3) at different concentrations as shown in FIG. 14. Mouse TNF-α and IL-6 production was assayed in supernatants harvested after 24 hours.

Mouse PBMCs = assay: IL-12 and TNF-α production by mouse PBMCs (ELISA); conditions: 5×10^5 cells from 129 wt and TLR7KO mice, 100 μg/ml
Protocol: as §2

[3] = molecular target: T1, human TLR8 expressed from the transgene in TLR8TGCL8 mice; assay: Cytokine production by blood cells from TLR8TGCL8 transgenic mice (ELISA); conditions: 5×10^5 blood cells from TLR8TGCL8 mice vs C57BL/6 WT, 200 or 100 μg/mL, 24 hours
From the text: as §3

Substance | production of IL-6 and TNF-α in PBMCs [1] | production of IL-6 and TNF-α in monocytes (human monocytes) | stimulation of pDCs (IL-6, TNF-α and IFN-α production) (human pDCs) | stimulation of mouse splenocytes (IL-12 and TNF-α production) (Mouse splenocytes) | mouse TNF-α and IL-6 production by bone marrow cells [2] | stimulation of mouse PBMCs (IL-12 and TNF-α production) (Mouse PBMCs) | mouse IL-12, TNF-α and IL-6 production by blood cells [3]
5′-URCURCUUCUR-/glycerol/-RUCUUCRUCRU-5′ (R=7-deazaguanosine) [TLR7 agonist] | stimulated production | to a lesser extent |  |  |  |  | 
5′-M2UGCUGCUUGUG-/glycerol/-GUGUUCGUCGUM2-5′ (M2=C6-linker) (NUGCUGCUUGUGNGUGUUCGUCGUN; listed as RNA, chemistry not fully specified) [TLR8 agonist, PN-based TLR8 ligand stabilized immunomodulatory RNA, previously identified (Lan et al., PNAS 2007)] | stimulated production | to a lesser extent | did not stimulate | did not stimulate | Only cells from transgenic animals responded | did not stimulate | Only cells from transgenic animals responded
